From ChEMBL document CHEMBL1909046, “DrugMatrix in vitro pharmacology data”

Legend:
[1] = molecular target: T1, Nitric oxide synthase, inducible (Mus musculus, UniProt P29477); design: species or system Escherichia coli;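 further: inhibition of iNOS enzyme activity measured with L-arginine as substrate; in other assays of this panel Not Active means under 50% inhibition at 10 µM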
T1 sequence (P29477 whole entry): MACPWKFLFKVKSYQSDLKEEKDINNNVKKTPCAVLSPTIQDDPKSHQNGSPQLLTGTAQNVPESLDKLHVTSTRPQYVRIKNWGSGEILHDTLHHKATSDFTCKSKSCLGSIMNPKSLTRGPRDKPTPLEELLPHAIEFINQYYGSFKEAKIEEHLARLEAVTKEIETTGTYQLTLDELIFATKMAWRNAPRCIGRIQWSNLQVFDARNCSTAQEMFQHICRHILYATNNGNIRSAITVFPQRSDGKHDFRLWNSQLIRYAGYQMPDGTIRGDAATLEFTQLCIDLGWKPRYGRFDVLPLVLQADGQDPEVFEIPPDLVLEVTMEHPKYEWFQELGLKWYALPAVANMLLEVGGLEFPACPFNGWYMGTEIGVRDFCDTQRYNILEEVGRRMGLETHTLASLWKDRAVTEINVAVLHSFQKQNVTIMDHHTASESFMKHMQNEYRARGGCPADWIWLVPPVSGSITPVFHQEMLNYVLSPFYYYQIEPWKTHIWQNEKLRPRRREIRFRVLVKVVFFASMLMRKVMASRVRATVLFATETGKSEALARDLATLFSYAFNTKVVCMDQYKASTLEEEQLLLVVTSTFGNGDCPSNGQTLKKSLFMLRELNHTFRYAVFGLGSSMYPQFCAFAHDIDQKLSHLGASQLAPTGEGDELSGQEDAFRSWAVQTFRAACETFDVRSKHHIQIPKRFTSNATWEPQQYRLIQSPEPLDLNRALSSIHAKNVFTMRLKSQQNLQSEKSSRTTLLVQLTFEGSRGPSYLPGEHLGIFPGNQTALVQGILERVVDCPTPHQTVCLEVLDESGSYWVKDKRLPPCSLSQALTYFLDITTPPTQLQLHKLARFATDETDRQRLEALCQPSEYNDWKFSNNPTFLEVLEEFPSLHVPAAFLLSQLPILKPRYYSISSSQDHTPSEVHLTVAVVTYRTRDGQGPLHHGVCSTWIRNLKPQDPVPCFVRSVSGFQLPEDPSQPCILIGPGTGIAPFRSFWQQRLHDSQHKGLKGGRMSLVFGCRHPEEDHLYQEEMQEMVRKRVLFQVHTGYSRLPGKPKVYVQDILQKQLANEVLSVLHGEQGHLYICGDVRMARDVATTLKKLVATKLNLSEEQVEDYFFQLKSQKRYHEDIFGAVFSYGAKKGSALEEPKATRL

[2] = DRUGMATRIX: Phorbol Ester radioligand binding (ligand: [3H] PDBu); format: cell membranes, Mus musculus, ICR, Brain, Membrane; conditions: Not Active = under 50% inhibition at 10 µM
[3] = DRUGMATRIX: Calcium Channel Type L, Phenylalkylamine radioligand binding (ligand: [3H] (-)-Desmethoxyverapamil (D-888)); format: cell membranes, Rattus norvegicus, Wistar, Brain, Membrane; conditions: Not Active = under 50% inhibition at 10 µM
[4] = DRUGMATRIX: GABAA, Muscimol, Central radioligand binding (ligand: [3H] Muscimol); format: cell membranes, Rattus norvegicus, Wistar, Brain, Membrane; conditions: Not Active = under 50% inhibition at 10 µM
[5] = molecular target: Mitogen-activated protein kinase 3 (Homo sapiens, UniProt P27361); experiment: DRUGMATRIX: Protein Serine/Threonine Kinase, ERK1 enzyme inhibition (substrate: Myelin Basic Protein); design: species or system Escherichia coli; conditions: Not Active = under 50% inhibition at 10 µM
[6] = molecular target: T2, Receptor-type tyrosine-protein phosphatase C (Homo sapiens, UniProt P08575); design: species or system Escherichia coli;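 further: inhibition of CD45 enzyme activity measured using DiFMUP as substrate; in other assays of this panel Not Active means under 50% inhibition at 10 µM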
T2 sequence (P08575 whole entry): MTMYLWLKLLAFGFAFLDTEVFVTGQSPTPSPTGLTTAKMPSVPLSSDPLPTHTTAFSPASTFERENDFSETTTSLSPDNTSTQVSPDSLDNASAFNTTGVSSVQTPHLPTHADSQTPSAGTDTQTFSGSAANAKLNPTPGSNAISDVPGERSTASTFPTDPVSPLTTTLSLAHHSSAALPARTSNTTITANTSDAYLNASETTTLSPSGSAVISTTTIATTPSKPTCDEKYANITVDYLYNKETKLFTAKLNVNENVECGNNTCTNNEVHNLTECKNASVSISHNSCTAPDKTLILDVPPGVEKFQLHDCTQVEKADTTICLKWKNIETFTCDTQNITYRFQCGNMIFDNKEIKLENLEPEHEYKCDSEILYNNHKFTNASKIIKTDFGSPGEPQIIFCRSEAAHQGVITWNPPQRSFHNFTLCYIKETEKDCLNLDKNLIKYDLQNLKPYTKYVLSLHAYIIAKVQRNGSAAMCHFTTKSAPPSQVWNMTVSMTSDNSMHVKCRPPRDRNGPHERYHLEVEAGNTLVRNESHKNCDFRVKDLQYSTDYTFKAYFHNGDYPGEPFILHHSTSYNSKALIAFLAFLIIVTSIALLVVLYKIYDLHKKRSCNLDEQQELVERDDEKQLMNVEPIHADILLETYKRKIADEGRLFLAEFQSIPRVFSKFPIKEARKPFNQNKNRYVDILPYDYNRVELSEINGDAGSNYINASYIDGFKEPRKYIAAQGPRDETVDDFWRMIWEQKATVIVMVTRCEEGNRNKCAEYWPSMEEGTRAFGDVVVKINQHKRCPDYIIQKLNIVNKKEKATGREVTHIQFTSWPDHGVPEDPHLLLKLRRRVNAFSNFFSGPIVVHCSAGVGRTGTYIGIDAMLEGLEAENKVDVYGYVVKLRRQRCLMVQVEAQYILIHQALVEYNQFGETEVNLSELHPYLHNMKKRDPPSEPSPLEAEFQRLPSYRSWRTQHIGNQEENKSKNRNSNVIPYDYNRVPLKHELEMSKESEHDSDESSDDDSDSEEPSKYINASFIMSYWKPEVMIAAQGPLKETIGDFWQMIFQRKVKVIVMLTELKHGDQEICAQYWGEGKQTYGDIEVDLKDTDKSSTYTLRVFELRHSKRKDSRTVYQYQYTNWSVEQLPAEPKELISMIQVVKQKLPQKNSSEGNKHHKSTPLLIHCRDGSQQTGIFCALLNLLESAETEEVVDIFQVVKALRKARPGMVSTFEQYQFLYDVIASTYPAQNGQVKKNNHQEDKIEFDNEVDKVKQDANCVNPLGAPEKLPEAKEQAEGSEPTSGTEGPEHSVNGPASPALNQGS

[7] = DRUGMATRIX: Sodium/nucleoside co-transporter radioligand binding (ligand: nitrobenzylthioinosine); format: cell membranes, Cavia porcellus, Dunkin-Hartley, Cerebral cortex, Membrane; conditions: Not Active = under 50% inhibition at 10 µM
[8] = molecular target: Kappa-type opioid receptor (Homo sapiens, UniProt P41145); experiment: DRUGMATRIX: Opiate kappa (OP2, KOP) radioligand binding (ligand: [3H] Diprenorphine); format: cell membranes, HEK293, Membrane; conditions: hek293; Not Active = under 50% inhibition at 10 µM
Sequence of Kappa-type opioid receptor (P41145 whole entry): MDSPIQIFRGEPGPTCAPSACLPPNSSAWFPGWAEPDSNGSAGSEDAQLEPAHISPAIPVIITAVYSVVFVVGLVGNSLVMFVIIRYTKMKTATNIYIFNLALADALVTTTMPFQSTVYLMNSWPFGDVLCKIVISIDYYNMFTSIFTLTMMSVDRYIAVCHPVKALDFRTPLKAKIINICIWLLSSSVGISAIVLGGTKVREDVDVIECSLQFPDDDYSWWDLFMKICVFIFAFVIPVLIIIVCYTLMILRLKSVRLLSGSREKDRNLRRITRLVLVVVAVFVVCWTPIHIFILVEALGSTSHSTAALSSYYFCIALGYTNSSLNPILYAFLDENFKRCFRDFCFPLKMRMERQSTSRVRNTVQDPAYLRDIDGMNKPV

Sequence of Mitogen-activated protein kinase 3 (P27361 whole entry): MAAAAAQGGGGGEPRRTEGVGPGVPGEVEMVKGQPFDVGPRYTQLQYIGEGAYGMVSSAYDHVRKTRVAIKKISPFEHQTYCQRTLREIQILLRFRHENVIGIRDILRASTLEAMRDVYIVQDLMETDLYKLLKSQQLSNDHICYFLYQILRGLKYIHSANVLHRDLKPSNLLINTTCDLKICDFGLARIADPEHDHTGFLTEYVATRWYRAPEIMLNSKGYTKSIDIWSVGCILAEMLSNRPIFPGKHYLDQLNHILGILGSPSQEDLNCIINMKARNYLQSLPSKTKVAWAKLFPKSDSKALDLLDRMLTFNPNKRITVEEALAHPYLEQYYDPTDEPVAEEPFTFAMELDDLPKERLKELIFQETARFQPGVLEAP

Cn1c(=O)c2c(ncn2CC2OCCO2)n(C)c1=O [DOXOFYLLINE]
Not Active: IC50 [1] | IC50 [2] | Ki [2] | IC50 [3] | Ki [3] | IC50 [4] | Ki [4] | IC50 [5] | IC50 [6] | IC50 [7] | Ki [7] | IC50 [8]

COc1cccc2c1C(=O)c1c(O)c3c(c(O)c1C2=O)C[C@@](O)(C(=O)CO)C[C@@H]3O[C@H]1C[C@H](N)[C@H](O)[C@H](C)O1 [DOXORUBICIN]
Not Active: IC50 [1] | IC50 [2] | Ki [2] | IC50 [3] | Ki [3] | IC50 [4] | Ki [4] | IC50 [5] | IC50 [6] | IC50 [7] | Ki [7] | IC50 [8]

COc1cccc2c1C(=O)c1c(O)c3c(c(O)c1C2=O)C[C@@](O)(C(=O)CO)C[C@@H]3O[C@H]1C[C@H](N)[C@@H](O)[C@H](C)O1 [EPIRUBICIN]
Not Active: IC50 [1] | IC50 [2] | Ki [2] | IC50 [3] | Ki [3] | IC50 [4] | Ki [4] | IC50 [5] | IC50 [6] | IC50 [7] | Ki [7] | IC50 [8]

C[C@]12CC[C@@H]3c4ccc(OC(=O)c5ccccc5)cc4CC[C@H]3[C@@H]1CC[C@@H]2O [ESTRADIOL BENZOATE]
Not Active: IC50 [1] | IC50 [2] | Ki [2] | IC50 [3] | Ki [3] | IC50 [4] | Ki [4] | IC50 [5] | IC50 [6] | IC50 [7] | Ki [7] | IC50 [8]

C[C@]12CC[C@@H]3c4ccc(O)cc4CC[C@H]3[C@@H]1CC[C@@H]2O [ESTRADIOL]
Not Active: IC50 [1] | IC50 [2] | Ki [2] | IC50 [3] | Ki [3] | IC50 [4] | Ki [4] | IC50 [5] | IC50 [6] | IC50 [7] | Ki [7] | IC50 [8]

CC[C@@H](CO)NCCN[C@@H](CC)CO [ETHAMBUTOL]
Not Active: IC50 [1] | IC50 [2] | Ki [2] | IC50 [3] | Ki [3] | IC50 [4] | Ki [4] | IC50 [5] | IC50 [6] | IC50 [7] | Ki [7] | IC50 [8]

CC1(C)O[C@@H]2C[C@H]3[C@@H]4C[C@H](F)C5=CC(=O)C=C[C@]5(C)[C@H]4[C@@H](O)C[C@]3(C)[C@]2(C(=O)CO)O1 [FLUNISOLIDE]
Not Active: IC50 [1] | IC50 [2] | Ki [2] | IC50 [3] | Ki [3] | IC50 [4] | Ki [4] | IC50 [5] | IC50 [6] | IC50 [7] | Ki [7] | IC50 [8]

CC1(C)O[C@@H]2C[C@H]3[C@@H]4C[C@H](F)C5=CC(=O)C=C[C@]5(C)[C@@]4(F)[C@@H](O)C[C@]3(C)[C@]2(C(=O)CO)O1 [FLUOCINOLONE ACETONIDE]
Not Active: IC50 [1] | IC50 [2] | Ki [2] | IC50 [3] | Ki [3] | IC50 [4] | Ki [4] | IC50 [5] | IC50 [6] | IC50 [7] | Ki [7] | IC50 [8]

CC1(C)O[C@@H]2C[C@H]3[C@@H]4C[C@H](F)C5=CC(=O)CC[C@]5(C)[C@H]4[C@@H](O)C[C@]3(C)[C@]2(C(=O)CO)O1 [FLURANDRENOLIDE]
Not Active: IC50 [1] | IC50 [2] | Ki [2] | IC50 [3] | Ki [3] | IC50 [4] | Ki [4] | IC50 [5] | IC50 [6] | IC50 [7] | Ki [7] | IC50 [8]
